According to paper PMC4919555 (EBioMedicine, 2016):
Read-outs that look alike come from different tables or passages of the source.

Tests used:
[1] = tested on: M. tuberculosis wild-type, katG-null and katG-overexpressing strains; format: cell-based
[2] = tested on: M. tuberculosis clinical isolates; format: cell-based

Cc1csc([C@](C)(O)c2nnc(Nc3ccn(Cc4csc(C)n4)n3)s2)n1 [GSK693, (S)-1-(4-methylthiazol-2-yl)-1-(5-((1-((2-methylthiazol-4-yl)methyl)-1H-pyrazol-3-yl)amino)-1,3,4-thiadiazol-2-yl)ethanol]
Killing of katG-null mutant strain [1]: killed equally well as the wild-type strain

NNC(=O)c1ccncc1 [INH, isoniazid]
Ratio (MIC relative to H37Rv) ([2]; CI1, − 15 C/T inhA): 6 | Ratio (MIC relative to H37Rv) ([2]; CI2, − 15 C/T inhA): 3 | Ratio (MIC relative to H37Rv) ([2]; CI3, − 15 C/T inhA): 3 | Response of katG-null mutant [1]: resistant | Response of katG-overexpressing strain ([1]; 3.6 μM (0.5 μg/ml), 4 days): more sensitive compared to the wild-type strain
